{
  "source": "patent US11266768B2",
  "about": "“Stretch release drug delivery materials” (TRUSTEES OF BOSTON UNIVERSITY, priority 2013, dated 2022)",
  "key": {"[1]": {"experiment": "Strain-modulated release of SN-38 from mechanoresponsive drug delivery device (fluorimetry)", "assay_type": "physicochemical", "settings": "for release of SN-38 from device: PBS or RPMI with 10% v/v fetal bovine serum", "method": "SN-38 from release media was quantified by mixing one (1) part release medium (containing drug) in three (3) parts 20 mM borate buffer (pH=9), which converts SN-38 to the carboxylate form. Fluorescence was detected by fluorimetry at an excitation of 380 nm and emission of 550 nm, as previously described (Yohe, J Controlled Release 2012, 162). (FIG. 42)\nA drug delivery device with incorporated SN-38 was fabricated in accordance with Example 2, above. The ends of the material were placed between two pieces of foam tape and further secured by applying glue to the ends in contact with the foam tape. The ends were then placed between the grips of a tensile tester machine (Instron 5848 Microtester) and the sample length between the grips was recorded. A water bath was placed under the sample arms, and the drug delivery device was submerged beneath 300 mL of phosphate-buffered saline (PBS) or cell media, RPMI with 10% v/v fetal bovine serum. A magnetic stir bar was also added to the bath to ensure thorough mixing during the study. The Instron software was then programmed to extend the sample arms at a constant rate of 2 mm/s until a travel distance equivalent to thirty percent of the initial sample length was reached (corresponding to 30% strain), or equivalent to the entire initial sample length was reached (corresponding to 100% strain). Once the device was stretched, aliquots of release medium were sampled at predetermined time points. The percentage of SN-38 released into the surrounding aqueous environment was calculated using fluorimetry, as described in Example 31. Devices were also placed on the tensile tester, but in this instance they were not stretched (0% strain), to serve as control experiments. Release of the chemotherapy agent from devices subjected to 100% strain and more moderate from devices subjected to 30% strain. […] (FIG. 43)"}, "OE33, oesophageal cancer": {"system": "OE33, oesophageal cancer", "experiment": "OE33 cell viability with SN-38 release aliquots (MTS Assay)", "assay_type": "cell-based", "settings": "release aliquots in RPMI with 10% fetal bovine serum incubated 96 hours", "source_text": "By altering the amount of strain, the rate of SN-38 release can be controlled in order to provide a range of concentrations at fixed time points. […] The concentration of SN-38 can be either lower or higher than the IC50 value such that a similar curve can be created using force and/or strain, rather than, or in addition to, concentration. […] Because SN-38 is a toxic chemotherapeutic drug, the amount of SN-38 released correlates with cell viability. […] (FIG. 44)"}, "[2]": {"experiment": "Tension-triggered release of cisplatin from mechanoresponsive drug delivery device (atomic absorption)", "assay_type": "physicochemical", "settings": "for release of cisplatin from device: PBS", "source_text": "The amount of cisplatin released from the drug delivery system into the surrounding aqueous environment was quantified through flameless atomic absorption spectroscopy (also known as graphite furnace atomic absorption or electrothermal absorption (Varian AA240Z Atomic Absorption)). The platinum atom has a strong absorbance band at 265.9 nm, and was used for detecting the presence of platinum (the major component of the anticancer agent cisplatin) in the release medium. A standard curve was first created, and aliquots (sampled at different timepoints) from the release medium with unknown cisplatin concentrations were determined from this standard curve. The concentration values were then converted to amount (mass) of cisplatin released by multiplying the concentration by the total volume of solution into which the agent released. The amount of cisplatin actually released was then divided by the amount of cisplatin initially loaded into the device, to get a percentage of cisplatin released as a function of time.\nA drug delivery device with incorporated cisplatin was fabricated in accordance with Example 1 above. The ends of the material were placed between two pieces of foam tape and further secured by applying glue to the ends in contact with the foam tape. The ends were then placed between the grips of a tensile tester machine (Instron 5848 Microtester) and the sample length between the grips was recorded. A water bath was placed under the sample arms, and the drug delivery device was submerged beneath 300 mL of phosphate-buffered saline (PBS). A magnetic stir bar was also added to the bath to ensure thorough mixing during the study. The Instron software was then programmed to extend the sample arms at a constant rate of 2 mm/s until a travel distance equivalent to the initial sample length was reached (corresponding to 100% strain). […] The percentage of cisplatin released into the surrounding aqueous environment was calculated using flameless atomic absorption spectroscopy, as described in Example 16. […]"}, "OE33 cells": {"system": "OE33 cells", "experiment": "OE33 cell viability with cisplatin release aliquots (MTS Assay)", "assay_type": "cell-based", "settings": "release aliquots incubated 72 hours with OE33 cells", "method": "Aliquots from release (FIG. 39) were incubated for 72 hours with OE33 cells, an oesophageal cell line. Cell viability from incubation of release aliquots over two hours were determined by MTS Assay, left. Cell viability at the 30-minute release at various strain magnitude are shown, right (p<0.05 for 30%, 100% when compared to 0%).\nCisplatin is used in the treatment of esophageal cancer. […] They used an esophageal cell line, OE33 (Sigma), to show the efficacy of cisplatin released from the tension-modulated drug delivery device, and that a dose-response curve can be generated using force and/or strain as the means to alter the dose. […] By altering the amount of force, the rate of cisplatin release can be controlled in order to provide a range of concentrations at fixed time points. The concentration of cisplatin can be either lower or higher than the IC50 value such that a similar curve may be created using force and/or strain on the x-axis, rather than, or in addition to, concentration.\nCisplatin can be loaded into these systems as described in Example 14. Cisplatin can be used to achieve dose-dependent tumor cell death, and also strain-dependent cell death. A strain-dependent release of cisplatin, a small hydrophilic drug molecule, can be seen in FIG. 39. Because cisplatin is a cytotoxic chemotherapeutic drug, the amount of cisplatin released correlates with cell viability (FIG. 40)."}, "OE33": {"system": "OE33", "settings": "72 hours of incubation; read-out: IC50 of cisplatin with OE33; cited from earlier work"}, "[3]": {"experiment": "Tension-triggered release of FITC-BSA from mechanoresponsive drug delivery device (fluorescence)", "assay_type": "physicochemical", "settings": "PBS with 10% serum", "source_text": "The amount of fluorescein isothiocyanate-labeled bovine serum albumin (FITC-BSA) released from the drug delivery system into the surrounding aqueous environment was quantified through fluorescence spectrophotometry. The fluorescein isothiocyanate is a fluorophore that is maximally excited around 495 nm and maximally emits at around 520 nm. The fluorescence intensity emitted at 520 nm was used to construct a standard curve of fluorescence versus FITC-BSA concentration. Unknown FITC-BSA concentrations in the release medium were calculated from this standard curve. The concentration values were then converted to amount (mass) of FITC-BSA released by multiplying by the concentration values by the total volume of solution into which the protein released. The amount of FITC-BSA actually released was then divided by the amount of FITC-BSA initially loaded into the device, to get a percentage of protein released as a function of time. (FIGS. 19-21)\nA drug delivery device with incorporated fluorescein isothiocyanate-labeled bovine serum albumin (FITC-BSA) was fabricated in accordance with Example 1 above. The ends of the material were placed between two pieces of foam tape and further secured by applying glue to the ends in contact with the foam tape. The ends were then placed between the grips of a tensile tester machine (Instron 5848 Microtester) and the sample length between the grips was recorded. A water bath was placed under the sample arms, and the drug delivery device was submerged beneath 300 mL of phosphate-buffered saline (PBS) with 10% serum (fetal bovine serum). A magnetic stir bar was also added to the bath to ensure thorough mixing during the study. The Instron software was then programmed to extend the sample arms at a constant rate of 2 mm/s until a travel distance equivalent to the initial sample length was reached (corresponding to 100% strain). Once the device was stretched, aliquots of release medium were sampled at predetermined time points. The percentage of protein released into the surrounding aqueous environment was calculated using fluorescence spectrophotometry, as described in Example 13 above. Devices were also placed on the tensile tester, but in this instance they were not stretched (0% strain), to serve as control experiments. Release of the fluorescent protein from devices subjected to strain was rapid, and was achieved only under the application of strain. […] (FIG. 24)\nA drug delivery device with incorporated fluorescein isothiocyanate-labeled bovine serum albumin (FITC-BSA) was fabricated in accordance with Example 1 above. The coating was electrosprayed using a tip-to-collector distance of 15 cm. The ends of the material were placed between two pieces of foam tape and further secured by applying glue to the ends in contact with the foam tape. The ends were then placed between the grips of a tensile tester machine (Instron 5848 Microtester) and the sample length between the grips was recorded. A water bath was placed under the sample arms, and the drug delivery device was submerged beneath 300 mL of phosphate-buffered saline (PBS) with 10% serum (fetal bovine serum). A magnetic stir bar was also added to the bath to ensure thorough mixing during the study. The Instron software was then programmed to extend the sample arms at a constant rate of 2 mm/s until a travel distance equivalent to half of the initial sample length was reached (corresponding to 50% strain), or equivalent to the entire initial sample length was reached (corresponding to 100% strain). Once the device was stretched, aliquots of release medium were sampled at predetermined time points. The percentage of protein released into the surrounding aqueous environment was calculated using fluorescence spectrophotometry, as described in Example 13 above. Devices were also placed on the tensile tester, but in this instance they were not stretched (0% strain) to serve as a control experiment. […]"}, "[4]": {"system": "type I collagen in fibroblasts", "settings": "cited from earlier work"}},
  "note": "“Also recorded” adds a separate entry of the source.",
  "data": [
    {"molecule": "CCc1c2c(nc3ccc(O)cc13)-c1cc3c(c(=O)n1C2)COC(=O)[C@]3(O)CC", "note": "[SN-38, 7-ethyl-10-hydroxycamptothecin]", "values": [
      {"measurement": "dependence of SN-38 release on strain", "setting": "[1]", "result": "strain-dependent"},
      {"measurement": "release of SN-38 from device", "setting": "[1]; 0% strain", "result": "did not release appreciable amounts of drug"},
      {"measurement": "release of SN-38 from device", "setting": "[1]; 30% strain", "result": "more moderate"},
      {"measurement": "cell viability with released SN-38", "setting": "OE33, oesophageal cancer", "result": "deliver an efficacious amount of SN-38 to change the cell viability; also recorded: significant decreases in viability with increasing strain"}
    ]},
    {"molecule": "N.N.[Cl][Pt][Cl]", "note": "[cisplatin, Cis-diamminedichloroplatinum(II)]", "values": [
      {"measurement": "release of cisplatin from device", "setting": "[2]; 100% strain", "result": "rapid release"},
      {"measurement": "dependence of cisplatin release on strain", "setting": "[2]; cell media solution (RPMI) with fetal bovine serum (10% v/v)", "result": "strain-dependent; also recorded: tension-dependent"},
      {"measurement": "release of cisplatin from device", "setting": "[2]; no applied tension (0% strain)", "result": "did not release appreciable amounts of drug; also recorded: minimal release"},
      {"measurement": "cell viability with released cisplatin", "setting": "OE33 cells", "result": "deliver an efficacious amount of cisplatin to change the cell viability"},
      {"measurement": "IC50", "setting": "OE33", "result": 2170, "unit": "nM"}
    ]},
    {"molecule": "FITC-BSA: Fluorescein isothiocyanate-labeled bovine serum albumin, model protein", "values": [
      {"measurement": "release of FITC-BSA from device", "setting": "[3]; 0% strain, dry coating, tip-to-collector distance 15 cm", "result": "did not release appreciable amounts of protein; also recorded: minimal release"},
      {"measurement": "release of FITC-BSA from device", "setting": "[3]; 50% strain, dry coating, tip-to-collector distance 15 cm", "result": "more moderate; also recorded: modest release profile"},
      {"measurement": "release of FITC-BSA from device", "setting": "[3]; 100% strain", "result": "rapid release"},
      {"measurement": "release of FITC-BSA from device", "setting": "[3]; 100% strain, listed as protein", "result": "rapid drug release"},
      {"measurement": "release of FITC-BSA from device", "setting": "[3]; 100% strain, dry coating, tip-to-collector distance 15 cm", "result": "most rapid; also recorded: rapid release"},
      {"measurement": "release of FITC-BSA from device", "setting": "[3]; no applied tension (0% strain)", "result": "did not release appreciable amounts of protein; also recorded: minimal release"},
      {"measurement": "release of FITC-BSA from device", "setting": "[3]; no applied tension (0% strain), listed as protein", "result": "did not release appreciable amounts of drug"}
    ]},
    {"molecule": "TNF-α", "values": [
      {"measurement": "effect on synthesis of type I collagen", "setting": "[4]", "result": "inhibit synthesis of type I collagen"}
    ]}
  ]
}
